Drawing on PMC5021961, “Generation of self-clusters of galectin-1 in the farnesyl-bound form” (Scientific Reports, 2016), this text covers Kd for one compound.

The structures appear in SMILES notation.

The target of the assay is T1, human galectin-1 (Gal-1) (Homo sapiens, UniProt P09382).
T1 construct: gene LGALS1
Put plainly: Trp68 fluorescence titration (equilibrium fit with Hill coefficient […]), fluorescence lifetime, UV resonance Raman, CD, native PAGE self-clustering. The class given is binding.

T1 sequence (P09382 2-135): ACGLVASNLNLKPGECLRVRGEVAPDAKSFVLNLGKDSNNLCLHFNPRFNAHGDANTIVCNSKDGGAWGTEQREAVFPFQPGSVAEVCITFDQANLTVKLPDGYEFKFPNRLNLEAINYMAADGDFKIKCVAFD

In turn, `CC(C)=CCC/C(C)=C/CC/C(C)=C/CSc1ccccc1C(=O)O` [FTS, farnesyl thiosalicylic acid] returned a Kd of about 2300 nM.
